Experimental findings from patent US8008329B2 (Dong Wha Pharmaceutical Co., Ltd., priority 2008, dated 2011) are described below.

The test system of the experiment is osteoclast differentiation. Description: Osteoclast differentiation in co-culture of mouse bone marrow cells and ST2 cells, TRAP staining (Examples 8-9). Type of experiment: cell-based. As to conditions: for % number of osteoclast (vs. solvent control group): 0.1 μM each, day 7; for activity at 0.1 µM: Mus musculus, Osteoclast, 168 h, Individual treatment (compounds), day 7, read-out: % number of osteoclast (vs. solvent control group). The essentials:
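Readout was TRAP-positive multinucleated (≥6 nuclei) cells on day 7, reported as % of 0.1% DMSO control, mean±SD of 4 wells. Cells were mouse (male ddY) bone marrow plus ST2 co-cultures driven by 10^−8 M vitamin D3/dexamethasone. Benzamidines, alendronic acid or risedronic acid were added at 0.1 μM alone or combined, with media renewed days 3 and 5.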

Setting [1] is: Combination treatment (alendronic acid + compounds).
Setting [2] is: Combination treatment (risedronic acid + compounds).

Each structure is given as a SMILES string. Marks after values point to notes of the source that are not given here.

On to `N=C(NO)c1ccc(OCCCCCOc2ccc(-c3csc(-c4cccnc4)n3)cc2)cc1` [Compound 7, N-hydroxy-4-{5-[4-(2-pyridine-3-yl-1,3-thiazol-4-yl)phenoxy]pentyloxy}-benzamidine], for which the activity at 0.1 µM was determined as 52 ± 4.8%. Further, the “% number of osteoclast (vs. solvent control group)” value (“% number of osteoclast” for short) under setting [1] is reported as 35 ± 7.1^b %. Further, the “% number of osteoclast” value under setting [2] is listed as 34 ± 10.1^c %.
The matching figures for `N=C(NO)c1ccc(OCCCCCOc2ccc(-c3nc(N4CCCCC4)sc3CC3CCCC3)cc2)cc1` [Compound 167, N-hydroxy-4-{5-[4-(5-cyclopentylmethyl-2-piperidino-1,3-thiazol-4-yl)phenoxy]pentyloxy}-benzamidine]: 72 ± 9.8%, 25 ± 1.9^b % and 31 ± 7.6^ac %.
The matching figures for `Cc1nc(-c2ccc(OCc3ccccc3COc3ccc(C(=N)NO)cc3)cc2)c(C(C)C)s1` [Compound 208, N-hydroxy-4-{2-[4-(5-isopropyl-2-methyl-thiazol-4-yl)-phenoxymethyl]-benzyloxy}-benzamidine]: 92 ± 5.8%, 75 ± 6.3% and 67 ± 6.5^ac %.
The matching figures for `N=C(NO)c1ccc(OCCCCCOc2ccc(-c3nc(N4CCOCC4)sc3CN3CCOCC3)cc2)cc1` [Compound 336, N-hydroxy-4-{5-[4-(2-morpholin-4-yl-5-morpholin-4-ylmethyl-thiazol-4-yl)-phenoxy]-pentyloxy}-benzamidine]: 52 ± 4%, 22 ± 3.2^ab % and 16 ± 3.0^ac %.
As to `Cc1nc(-c2ccc(OCCCCCOc3ccc(C(=N)NO)cc3)cc2)c(CN2CCN(C)CC2)s1` [Compound 294, N-hydroxy-4-(5-{4-[2-methyl-5-(4-methyl-piperazin-1-ylmethyl)-thiazol-4-yl]-phenoxy}-pentyloxy)-benzamidine], the activity at 0.1 µM stood at 27 ± 4.5%. In addition, under setting [1], the “% number of osteoclast” value is 13 ± 2.4^ab %. Further, under setting [2], the “% number of osteoclast” value is 9 ± 2.7^ac %.
The like results for `CCc1sc(NCCOC)nc1-c1ccc(OCCCCCOc2ccc(C(=N)NO)cc2)cc1` [Compound 102, N-hydroxy-4-{5-[4-(5-ethyl-2-(2-methoxyethyl)amino-1,3-thiazol-4-yl)phenoxy]pentyloxy}-benzamidine] were, in that order, 47 ± 4%, 37 ± 3.6^b % and 21 ± 2.6^ac %.
The matching figures for `Cc1nc(-c2ccc(OCCCCOc3ccc(C(=N)NO)cc3)cc2)c(C(C)C)s1` [Compound 194, N-hydroxy-4-{4-[4-(5-isopropyl-2-methyl-1,3-thiazol-4-yl)phenoxy]butoxy}-benzamidine]: 74 ± 10.1%, 33 ± 7.1^ab % and 30 ± 7.0^ac %.
For the compound `Cc1nc(-c2ccc(OCCCCCOc3ccc(C(=N)NO)cc3)cc2)c(CCN2CCSCC2)s1` [Compound 228, N-hydroxy-4-(5-{4-[2-methyl-5-(2-thiomorpholin-4-yl-ethyl)-thiazol-4-yl]-phenoxy}-pentyloxy)-benzamidine], the activity at 0.1 µM is 49 ± 3.5%. Also, under setting [1], the “% number of osteoclast” value is 31 ± 4.8^ab %. In addition, the “% number of osteoclast” value under setting [2] is 20 ± 5.8^ac %.
The like results for `Cc1nc(-c2ccc(OCCCCCOc3ccc(C(=N)NO)cc3)cc2)c(CCNC(C)(C)C)s1` [Compound 234, N-hydroxy-4-(5-{4-[5-(2-tert-butylamino-ethyl)-2-methyl-thiazol-4-yl]-phenoxy}-pentyloxy)-benzamidine] were, in that order, 44 ± 7.5%, 30 ± 6.1^b % and 22 ± 4.0^ac %.
The matching figures for `CNc1nc(-c2ccc(OCCCCCOc3ccc(C(=N)NO)cc3)cc2)c(CCN2CCSCC2)s1` [Compound 262, N-hydroxy-4-(5-{4-[2-methylamino-5-(2-thiomorpholin-4-yl-ethyl)-thiazol-4-yl]-phenoxy}-pentyloxy)-benzamidine]: 47 ± 4.2%, 24 ± 2.6^ab % and 7 ± 4.9^ac %.
Regarding `CN(C)CCc1sc(C2CCCCC2)nc1-c1ccc(OCCCCCOc2ccc(C(=N)NO)cc2)cc1` [Compound 250, N-hydroxy-4-(5-{4-[2-cyclohexyl-5-(2-dimethylamino-ethyl)-thiazol-4-yl]-phenoxy}-pentyloxy)-benzamidine], the activity at 0.1 µM was found to be 52 ± 7.2%. In addition, under setting [1], the “% number of osteoclast” value was 45 ± 5.2^b %. Further, the “% number of osteoclast” value under setting [2] is listed as 12 ± 1.4^ac %.
The like results for `CNc1nc(-c2ccc(OCCCCCOc3ccc(C(=N)NO)cc3)cc2)c(CCCl)s1` [Compound 115, N-hydroxy-4-{5-[4-(5-(2-chloroethyl)-2-methylamino-1,3-thiazol-4-yl)phenoxy]pentyloxy}-benzamidine] were, in that order, 77 ± 12.4%, 51 ± 8.9% and 45 ± 8.3^ac %.
The like results for `CCc1nc(-c2ccc(OCCCCCOc3ccc(C(=N)NO)cc3)cc2)c(CCN2CCSCC2)s1` [Compound 256, N-hydroxy-4-(5-{4-[2-ethyl-5-(2-thiomorpholin-4-yl-ethyl)-thiazol-4-yl]-phenoxy}-pentyloxy)-benzamidine] were, in that order, 49 ± 0.9%, 26 ± 3.0^ab % and 12 ± 2.4^ac %.
`Cc1nc(-c2ccc(OCCCCCOc3ccc(C(=N)NO)cc3)cc2)c(CCN(CCO)CCO)s1` [Compound 225, N-hydroxy-4-{5-[4-(5-{2-[bis-(2-hydroxy-ethyl)-amino]-ethyl}-2-methyl-thiazol-4-yl)-phenoxy]-pentyloxy}-benzamidine]: the activity at 0.1 µM is 70 ± 7.1%. Moreover, the “% number of osteoclast” value under setting [1] was 50 ± 4.8^ab %. Under setting [2], the “% number of osteoclast” value is reported as 48 ± 4.9^ac %.
The like results for `N=C(NO)c1ccc(OCCCCCOc2ccc(-c3nc(N)sc3CC3CCCC3)cc2)cc1` [Compound 67, N-hydroxy-4-{5-[4-(2-amino-5-cyclopentylmethyl-1,3-thiazol-4-yl)phenoxy]pentyloxy}-benzamidine] were, in that order, 74 ± 11.7%, 53 ± 6.4^b % and 36 ± 1.7^ac %.
The matching figures for `CC(C)NCc1sc(N(C)CCN2CCOCC2)nc1-c1ccc(OCCCCCOc2ccc(C(=N)NO)cc2)cc1` [Compound 317, N-hydroxy-4-[5-(4-{5-(isopropylamino-methyl)-2-[methyl-(2-morpholin-4-yl-ethyl)-amino]-thiazol-4-yl}-phenoxy)-pentyloxy]-benzamidine]: 45 ± 3.2%, 18 ± 4.6^ab % and 16 ± 3.2^ac %.
The like results for `CCCNCc1sc(C)nc1-c1ccc(OCCCCCOc2ccc(C(=N)NO)cc2)cc1` [Compound 301, N-hydroxy-4-{5-[4-(2-methyl-5-propylaminomethyl-thiazol-4-yl)-phenoxy]-pentyloxy}-benzamidine] were, in that order, 49 ± 5.1%, 10 ± 2.3^ab % and 6 ± 2.3^ac %.
`CN(CCN1CCOCC1)c1nc(-c2ccc(OCCCCCOc3ccc(C(=N)NO)cc3)cc2)c(CN2CCOCC2)s1` [Compound 313, N-hydroxy-4-[5-(4-{2-[methyl-(2-morpholin-4-yl-ethyl)-amino]-5-morpholin-4-ylmethyl-thiazol-4-yl}-phenoxy)-pentyloxy]-benzamidine]: the activity at 0.1 µM was found to be 53 ± 6%. Moreover, under setting [1], the “% number of osteoclast” value is reported as 23 ± 5.9^ab %. Further, the “% number of osteoclast” value under setting [2] is reported as 13 ± 3.3^ac %.
The matching figures for `CCc1sc(NC(=O)c2cccnc2)nc1-c1ccc(OCCCCCOc2ccc(C(=N)NO)cc2)cc1` [Compound 101, N-hydroxy-4-{5-[4-(5-ethyl-2-(3-pyridylcarbonyl)amino-1,3-thiazol-4-yl)phenoxy]pentyloxy}-benzamidine]: 50 ± 5.9%, 24 ± 3.2^ab % and 18 ± 2.8^ac %.
The like results for `CN(CCO)c1nc(-c2ccc(OCCCCCOc3ccc(C(=N)NO)cc3)cc2)c(CN2CCOCC2)s1` [Compound 310, N-hydroxy-4-[5-(4-{2-[(2-hydroxy-ethyl) -methyl-amino]-5-morpholin-4-ylmethyl-thiazol-4-yl}-phenoxy)-pentyloxy]-benzamidine] were, in that order, 49 ± 3.3%, 33 ± 5.1^ab % and 18 ± 4.5^ac %.
The matching figures for `Cc1nc(-c2ccc(OCCCOc3ccc(C(=N)NO)cc3)cc2)c(C(C)C)s1` [Compound 193, N-hydroxy-4-{3-[4-(5-isopropyl-2-methyl-1,3-thiazol-4-yl)phenoxy]propoxy}-benzamidine]: 48 ± 4.4%, 34 ± 5.0^ab % and 27 ± 4.8^ac %.
In the case of `CCCCc1sc(N(C)C)nc1-c1ccc(OCCCCCOc2ccc(C(=N)NO)cc2)cc1` [Compound 152, N-hydroxy-4-{5-[4-(5-butyl-2-dimethylamino-1,3-thiazol-4-yl)phenoxy]pentyloxy}-benzamidine], the activity at 0.1 µM came to 65 ± 2.2%. Under setting [1], the “% number of osteoclast” value is given as 46 ± 8.8^b %. Besides, the “% number of osteoclast” value under setting [2] is reported as 48 ± 4.9^ac %.
